Experimental data: patent publication US20200078468A1, “NEUROTENSIN RECEPTOR BINDING CONJUGATES AND FORMULATIONS THEREOF” (priority 2016, published 2020)

Molecular target: T1, human NTSR1 (Homo sapiens, UniProt P30989)
T1 construct: host or cells: HEK-293 cells (membrane preparations)
Assay: radioligand-receptor binding assay, [125I] labeled neurotensin (Eurofins Panlabs)
Details: [125I] neurotensin 0.02 nM, membranes from NTSR1 expressing HEK-293 cells, 45 minute incubation, Cheng and Prusoff; read-out: NTSR1 binding Ki
Procedure: Conjugates were assessed in an in vitro assay evaluating binding to NTSR1. A radioligand-receptor binding assay was conducted at Eurofins Panlabs (Taiwan) to determine the affinity of conjugates described herein to NTSR1. The assay measures binding of radiolabeled ligand, [^125I] labeled neurotensin, to human NTSR1 using membrane preparations from NTSR1 expressing HEK-293 cells (Human embryonic kidney cells 293). Membranes were incubated with radiolabeled neurotensin (0.02 nM) in the presence of conjugate/compound starting at a dose of either 100 nM, or 10 nM, using 3× serial dilutions to obtain a 6-pt curve. After a 45 minute incubation, membranes were filtered and washed 3× and counted to determine the remaining [^125I] neurotensin bound to the receptor. IC50 values were determined by a non-linear, least squares regression analysis using MathIQ™ (ID Business Solutions Ltd., UK). The Ki values were calculated using the equation of Cheng and Prusoff (Cheng and Prusoff, Biochem. Pharmacol. 22:3099-3108, 1973) using the observed IC50 of the tested conjugate/compound, the concentration of radioligand employed in the assay, and the historical values for the Kd of the ligand obtained at Eurofins.

T1 sequence (P30989 whole entry): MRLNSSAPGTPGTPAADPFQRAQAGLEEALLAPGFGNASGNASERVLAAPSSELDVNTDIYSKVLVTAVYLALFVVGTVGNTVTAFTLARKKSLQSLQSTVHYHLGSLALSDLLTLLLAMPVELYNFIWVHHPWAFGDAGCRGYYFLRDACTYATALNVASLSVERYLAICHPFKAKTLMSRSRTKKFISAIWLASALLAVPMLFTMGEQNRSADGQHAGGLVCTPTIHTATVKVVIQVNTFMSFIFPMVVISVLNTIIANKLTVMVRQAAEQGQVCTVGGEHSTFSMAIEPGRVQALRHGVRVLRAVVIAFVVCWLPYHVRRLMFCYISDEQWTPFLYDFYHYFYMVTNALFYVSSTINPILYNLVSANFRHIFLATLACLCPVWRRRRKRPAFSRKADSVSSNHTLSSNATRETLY

Row | Structure (SMILES) | Ki [nM]
1 | CC[C@H](C)[C@H](NC(=O)[C@H](Cc1ccc(O)c(O)c1)NC(=O)[C@@H]1CCCN1C(=O)[C@H](CCCNC(=N)N)NC(=O)[C@@H](CCCNC(=N)N)NC(=O)[C@@H]1CCCN1C(=O)[C@H](CCCCNC(=O)CCSC1CC(=O)N(CCCCCC(=O)NCC(=O)N[C@@H](Cc2ccccc2)C(=O)N[C@@H](CC(C)C)C(=O)NCC(=O)NCCCN2C(=O)CC(SCCC(=O)N(C)[C@@H](C)C(=O)O[C@H]3CC(=O)N(C)c4cc(cc(OC)c4Cl)C/C(C)=C/C=C/[C@@H](OC)[C@@]4(O)C[C@H](OC(=O)N4)[C@@H](C)[C@@H]4O[C@@]34C)C2=O)C1=O)NC(C)=O)C(=O)N[C@@H](C[Si](C)(C)C)C(=O)O (stereo partly drawn) [Compound 44] | 0.23
2 | CC[C@H](C)[C@H](NC(=O)[C@@H](Cc1ccc(O)cc1)NC(=O)[C@@H]1CCCN1C(=O)[C@H](CCCNC(=N)N)NC(=O)[C@@H](CCCNC(=N)N)NC(=O)[C@@H]1CCCN1C(=O)[C@H](CCCCNC(=O)CCSC1CC(=O)N(CCCCCC(=O)NCC(=O)N[C@@H](Cc2ccccc2)C(=O)N[C@@H](CC(C)C)C(=O)NCC(=O)NCCCN2C(=O)CC(SCCC(=O)N(C)[C@@H](C)C(=O)O[C@H]3CC(=O)N(C)c4cc(cc(OC)c4Cl)C/C(C)=C/C=C/[C@@H](OC)[C@@]4(O)C[C@H](OC(=O)N4)[C@@H](C)[C@@H]4O[C@@]34C)C2=O)C1=O)NC(C)=O)C(=O)N[C@@H](C[Si](C)(C)C)C(=O)O (stereo partly drawn) [Compound 45] | > 10
3 | CC[C@H](C)[C@H](NC(=O)[C@H](Cc1ccc(OC)c(OC)c1)NC(=O)[C@@H]1CCCN1C(=O)[C@H](CCCNC(=N)N)NC(=O)[C@@H](CCCNC(=N)N)NC(=O)[C@@H]1CCCN1C(=O)[C@H](CCCCNC(=O)CCSC1CC(=O)N(CCCCCC(=O)NCC(=O)N[C@@H](Cc2ccccc2)C(=O)N[C@@H](CC(C)C)C(=O)NCC(=O)NCCCN2C(=O)CC(SCCC(=O)N(C)[C@@H](C)C(=O)O[C@H]3CC(=O)N(C)c4cc(cc(OC)c4Cl)C/C(C)=C/C=C/[C@@H](OC)[C@@]4(O)C[C@H](OC(=O)N4)[C@@H](C)[C@@H]4O[C@@]34C)C2=O)C1=O)NC(C)=O)C(=O)N[C@@H](C[Si](C)(C)C)C(=O)O (stereo partly drawn) [Compound 46] | > 10
4 | CC[C@H](C)[C@H](NC(=O)[C@H](Cc1ccc(Cl)c(Cl)c1)NC(=O)[C@@H]1CCCN1C(=O)[C@H](CCCNC(=N)N)NC(=O)[C@@H](CCCNC(=N)N)NC(=O)[C@@H]1CCCN1C(=O)[C@H](CCCCNC(=O)CCSC1CC(=O)N(CCCCCC(=O)NCC(=O)N[C@@H](Cc2ccccc2)C(=O)N[C@@H](CC(C)C)C(=O)NCC(=O)NCCCN2C(=O)CC(SCCC(=O)N(C)[C@@H](C)C(=O)O[C@H]3CC(=O)N(C)c4cc(cc(OC)c4Cl)C/C(C)=C/C=C/[C@@H](OC)[C@@]4(O)C[C@H](OC(=O)N4)[C@@H](C)[C@@H]4O[C@@]34C)C2=O)C1=O)NC(C)=O)C(=O)N[C@@H](C[Si](C)(C)C)C(=O)O (stereo partly drawn) [Compound 47] | > 10
5 | COc1cc2cc(c1Cl)N(C)C(=O)C[C@H](OC(=O)[C@H](C)N(C)C(=O)CCSC1CC(=O)N(CCCNC(=O)CNC(=O)[C@H](CC(C)C)NC(=O)[C@H](Cc3ccccc3)NC(=O)CNC(=O)CCCCCN3C(=O)CC(SCCC(=O)NCCCC[C@H](NC(C)=O)C(=O)N4CCC[C@H]4C(=O)N[C@@H](CCCCN)C(=O)N[C@@H](CCCCN)C(=O)N4CCC[C@H]4C(=O)N[C@@H](Cc4ccc(O)cc4)C(=O)N[C@@H](C[Si](C)(C)C)C(=O)N[C@@H](C[Si](C)(C)C)C(=O)O)C3=O)C1=O)[C@]1(C)O[C@H]1[C@H](C)[C@@H]1C[C@@](O)(NC(=O)O1)[C@H](OC)/C=C/C=C(\C)C2 (stereo partly drawn) [Compound 48] | > 10
6 | COc1cc2cc(c1Cl)N(C)C(=O)C[C@H](OC(=O)[C@H](C)N(C)C(=O)CCSC1CC(=O)N(CCCNC(=O)CNC(=O)[C@H](CC(C)C)NC(=O)[C@H](Cc3ccccc3)NC(=O)CNC(=O)CCCCCN3C(=O)CC(SCCC(=O)NCCCC[C@H](NC(=O)c4ccc(N=[N+]=[N-])cc4)C(=O)N4CCC[C@H]4C(=O)N(C)[C@@H](CCCNC(=N)N)C(=O)N[C@@H](CCCNC(=N)N)C(=O)N4CCC[C@H]4C(=O)N[C@@H](Cc4ccc(O)cc4)C(=O)N[C@H](C(=O)N[C@@H](CC(C)C)C(=O)O)C(C)(C)C)C3=O)C1=O)[C@]1(C)O[C@H]1[C@H](C)[C@@H]1C[C@@](O)(NC(=O)O1)[C@H](OC)/C=C/C=C(\C)C2 (stereo partly drawn) [Compound 49] | 0.18
